IC50, cellular anti-proliferative activity and tumor growth inhibition data for two compounds are collected here from patent publication US20250145589A1, “PYRIDINE DERIVATIVE AND USE THEREOF” (SICHUAN HUIYU PHARMACEUTICAL CO., LTD., priority 2021, published 2025).

A word on the IC50: it is the concentration that inhibits the measured activity by half.

The target of one test is PI3Kα (Homo sapiens (Human), UniProt P42336). The experiment in a line: Inhibition of PI3Kα efficacy assay (ADP-Glo kinase assay). Particulars: Table 1; read-out: PI3Kα inhibitory activity (IC50). The class given is biochemical. In short, it runs like this: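 Eight five-fold dilutions of compound (2 mM DMSO stock) tested; kinase reaction with PI and ATP ran 60 min at RT, followed by ADP-Glo and detection reagent steps of 40 min each. Four-parameter logistic fitting gave IC50 values.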
On the technique in general: ADP-Glo first removes unused ATP, then detects ADP through luciferase.

For another test, the target named is PI3Kδ (Homo sapiens (Human), UniProt O00329). The experiment in a line: Inhibition of PI3Kδ efficacy assay (ADP-Glo kinase assay). Format: biochemical. The conditions noted are these: Table 1; read-out: PI3Kδ inhibitory activity (IC50). In short, it runs like this:
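Luminescent ADP-Glo readout of PI3Kδ: after a 60 min RT reaction with PI/ATP substrate, ATP depletion (40 min) and ADP detection (40 min) steps followed. Compounds tested as eight five-fold serial dilutions; inhibition rates fitted to log(inhibitor) vs. response, variable slope, for IC50.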

The target in the next test is KRAS^G12C-SOS1 (Homo sapiens (Human), UniProt P01116, G12C). The experiment in a line: HTRF KRAS G12C/SOS1 binding assay. Particulars: Table 5. The procedure:
Initially, a 2 mM stock solution of the test compound (dissolved in DMSO) was serially diluted in five-fold concentrations using DMSO to obtain eight working solutions 1 (200×). Subsequently, each of the eight working solutions 1 was further diluted in a 20-fold gradient by adding 5 μL into 95 μL of Diluent buffer, mixed completely with vortex mixer, resulting in eight working solutions 2 (10×). […] Subsequently, 5 μL of Anti-tag 1-Tb^3+ stock solution and 5 μL of Anti-tag2-XL665 were added to each well, mixed, and incubated at 4° C. for 3 hours. Remove the plate and read on an HTRF® compatible reader, with the excitation light wavelength set at 337 nm and readings recorded at 620 nm and 665 nm. The data results were presented as the ratio of the 665 nm signal value to the 620 nm signal value for each well, calculated as follows: […]. The inhibition rate was calculated using the following formula: […]
Data were analyzed using GraphPad Prism with log (inhibitor) vs. response-Variable Slope (four parameters) fitting calculations for IC50 values.
On the technique in general: TR-FRET usually uses a lanthanide donor and a delayed reading to cut background.

In test [1] the test system is MIA PaCa-2 cells (KRAS G12C mutant). Kind of test: MIA PaCa-2 cell anti-proliferation (CellTiter-Glo). Particulars: Homo sapiens, 72 h; MIA Paca-2 cells, 3 days, Table 7; read-out: MIA PaCa-2 (IC50). The class given is cell-based. In short, it runs like this:
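Viable-cell luminescence (CellTiter-Glo, ≥30 min at 25 °C) measured after a 3-day, 37 °C exposure to compounds at 9 points, 4-fold spaced, in DMEM containing 10% FBS plus 2.5% horse serum. IC50 derived versus no-inhibitor wells.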

The test system of test [2] is NCI-H358-AMGR drug-resistant cell line. Kind of test: NCI-H358-AMGR drug-resistant cell proliferation inhibitory activity test. The class given is cell-based. Particulars: 72 h; NCI-H358-AMGR drug-resistant cells, 3 days incubation, CellTiter-Glo. In short, it runs like this: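 Luminescent CellTiter-Glo read-out after 3-day, 37° C compound exposure (8 points, 5-fold series) of AMG510-resistant NCI-H358 cells plated at 4×10^3 per well.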
A general note: ATP-based viability assays read luminescence as a measure of living cells.

In test [3] the test system is MIA PaCa-2-AMGR drug-resistant cell line. Kind of test: MIA PaCa-2-AMGR drug-resistant cell proliferation inhibitory activity test. The class given is cell-based. The conditions noted are these: 72 h, MIA PaCa-2-AMGR drug-resistant cells, 3 days incubation, CellTiter-Glo. The procedure:
Test Example 7: Generation of MIA PaCa-2-AMGR drug-resistant cell line
MIA PaCa-2 cells were seeded and cultured at 50 to 70% confluence in six-well plate with DMEM (10% FBS+2.5% horse serum) medium at 37° C. with 5% CO2. AMG510 was added for induction at three starting concentrations of 1 nM, 10 nM and 50 nM, and the medium containing the same concentration of AMG510 was replaced every 3 days. Cells were passaged once they reached confluence. After every two passages at a given concentration of drug, the concentration was increased in a 3-fold increment until final concentrations of 1 μM for AMG510 was achieved.
MIA PaCa-2-AMGR cells in logarithmic growth phase were collected and seeded into a clear-bottom 96-well plate at a density of 4×10^3 cells per well in 80 μL of medium, and then incubated overnight at 37° C. with 5% CO2. The compounds were serially diluted 5-fold in DMSO to obtain 8 concentrations, and then further diluted with DMEM (10% FBS+2.5% horse serum) cell culture medium to obtain the working solutions (5×), 20 μL of each working solution was added to the cell culture supernatant in each well, and the plate was further incubated for 3 days at 37° C. with 5% CO2. The plate was then equilibrated with CellTiter-Glo® reagent at room temperature (25° C.) for 10-30 minutes. After aspirating 50 μL of the medium, 50 μL of CellTiter-Glo® reagent was added. The cells were thoroughly mixed with the CellTiter-Glo® reagent using a microplate shaker for 2 minutes, and then incubated at room temperature for 10 minutes. The 96-well plate was placed in a multi-mode microplate reader to record the luminescence values (RLU).
The inhibitory rate was calculated using the following formula: […]
Data were analyzed using GraphPad Prism for IC50 values (Note: The negative control refers to the group without inhibitor) The data were presented m Table 9

The test system of a further test is KRAS G12C mutation. The conditions noted are these: at the cellular level; cited from earlier work.
The subject of test [4] is pancreatic cancer MIA-Paca2 cell subcutaneous xenograft tumor. The conditions noted are these: cited from earlier work.

PI3Kα, sequence (P42336 whole entry): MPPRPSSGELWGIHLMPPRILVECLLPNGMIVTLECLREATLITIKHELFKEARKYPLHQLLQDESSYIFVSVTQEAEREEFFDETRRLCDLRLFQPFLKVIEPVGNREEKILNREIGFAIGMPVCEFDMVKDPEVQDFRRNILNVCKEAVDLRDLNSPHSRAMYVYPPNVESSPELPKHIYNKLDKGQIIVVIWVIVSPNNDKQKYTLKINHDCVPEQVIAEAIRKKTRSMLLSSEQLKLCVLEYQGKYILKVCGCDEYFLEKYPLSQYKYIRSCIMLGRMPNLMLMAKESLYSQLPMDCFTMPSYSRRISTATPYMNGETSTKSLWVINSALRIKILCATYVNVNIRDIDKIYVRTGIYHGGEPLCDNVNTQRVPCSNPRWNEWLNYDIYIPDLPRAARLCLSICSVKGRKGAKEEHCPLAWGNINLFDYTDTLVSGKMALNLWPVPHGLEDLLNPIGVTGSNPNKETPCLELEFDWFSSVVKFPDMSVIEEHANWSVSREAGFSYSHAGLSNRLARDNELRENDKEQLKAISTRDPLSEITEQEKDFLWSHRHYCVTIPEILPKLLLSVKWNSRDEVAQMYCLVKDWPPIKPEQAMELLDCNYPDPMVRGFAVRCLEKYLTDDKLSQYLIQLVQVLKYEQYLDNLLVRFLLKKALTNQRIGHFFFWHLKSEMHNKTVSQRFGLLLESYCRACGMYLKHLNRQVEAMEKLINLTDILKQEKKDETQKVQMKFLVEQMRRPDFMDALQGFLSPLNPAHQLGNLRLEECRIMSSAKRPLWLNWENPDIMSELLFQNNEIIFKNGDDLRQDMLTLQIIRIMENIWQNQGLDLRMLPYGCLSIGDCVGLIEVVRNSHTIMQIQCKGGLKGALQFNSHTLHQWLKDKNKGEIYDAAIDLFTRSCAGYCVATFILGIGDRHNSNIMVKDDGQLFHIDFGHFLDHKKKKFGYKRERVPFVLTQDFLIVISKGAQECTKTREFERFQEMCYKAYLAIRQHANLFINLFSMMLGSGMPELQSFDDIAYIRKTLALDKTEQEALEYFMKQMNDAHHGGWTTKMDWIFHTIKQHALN
PI3Kα, sequence (P27986 whole entry partner): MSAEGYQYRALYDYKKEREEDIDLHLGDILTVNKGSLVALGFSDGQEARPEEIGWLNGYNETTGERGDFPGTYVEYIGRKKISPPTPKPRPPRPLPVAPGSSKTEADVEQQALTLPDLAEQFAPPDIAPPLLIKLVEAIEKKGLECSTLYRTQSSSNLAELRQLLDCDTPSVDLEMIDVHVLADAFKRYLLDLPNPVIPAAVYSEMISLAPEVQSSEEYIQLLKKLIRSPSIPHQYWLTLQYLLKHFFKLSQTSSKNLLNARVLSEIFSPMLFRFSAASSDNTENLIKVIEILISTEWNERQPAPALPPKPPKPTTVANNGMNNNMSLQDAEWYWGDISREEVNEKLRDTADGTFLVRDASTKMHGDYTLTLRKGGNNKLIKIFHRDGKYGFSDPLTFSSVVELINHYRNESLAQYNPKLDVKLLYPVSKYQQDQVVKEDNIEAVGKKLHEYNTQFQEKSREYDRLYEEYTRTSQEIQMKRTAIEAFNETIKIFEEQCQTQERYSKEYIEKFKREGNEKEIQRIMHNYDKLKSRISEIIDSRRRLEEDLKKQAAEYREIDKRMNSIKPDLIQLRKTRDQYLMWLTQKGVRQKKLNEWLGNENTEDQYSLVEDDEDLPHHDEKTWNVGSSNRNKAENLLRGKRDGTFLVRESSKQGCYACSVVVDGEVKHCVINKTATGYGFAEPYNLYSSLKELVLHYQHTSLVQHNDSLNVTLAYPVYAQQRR
KRAS^G12C-SOS1, sequence (P01116-2 other isoform, or with tags, fused parts or gaps G12C): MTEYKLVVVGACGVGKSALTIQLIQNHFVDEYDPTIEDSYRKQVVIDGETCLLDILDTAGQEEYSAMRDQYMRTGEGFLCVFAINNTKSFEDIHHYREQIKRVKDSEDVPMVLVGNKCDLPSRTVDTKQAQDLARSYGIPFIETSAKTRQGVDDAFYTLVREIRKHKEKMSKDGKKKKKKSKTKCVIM
PI3Kδ, sequence (O00329 whole entry): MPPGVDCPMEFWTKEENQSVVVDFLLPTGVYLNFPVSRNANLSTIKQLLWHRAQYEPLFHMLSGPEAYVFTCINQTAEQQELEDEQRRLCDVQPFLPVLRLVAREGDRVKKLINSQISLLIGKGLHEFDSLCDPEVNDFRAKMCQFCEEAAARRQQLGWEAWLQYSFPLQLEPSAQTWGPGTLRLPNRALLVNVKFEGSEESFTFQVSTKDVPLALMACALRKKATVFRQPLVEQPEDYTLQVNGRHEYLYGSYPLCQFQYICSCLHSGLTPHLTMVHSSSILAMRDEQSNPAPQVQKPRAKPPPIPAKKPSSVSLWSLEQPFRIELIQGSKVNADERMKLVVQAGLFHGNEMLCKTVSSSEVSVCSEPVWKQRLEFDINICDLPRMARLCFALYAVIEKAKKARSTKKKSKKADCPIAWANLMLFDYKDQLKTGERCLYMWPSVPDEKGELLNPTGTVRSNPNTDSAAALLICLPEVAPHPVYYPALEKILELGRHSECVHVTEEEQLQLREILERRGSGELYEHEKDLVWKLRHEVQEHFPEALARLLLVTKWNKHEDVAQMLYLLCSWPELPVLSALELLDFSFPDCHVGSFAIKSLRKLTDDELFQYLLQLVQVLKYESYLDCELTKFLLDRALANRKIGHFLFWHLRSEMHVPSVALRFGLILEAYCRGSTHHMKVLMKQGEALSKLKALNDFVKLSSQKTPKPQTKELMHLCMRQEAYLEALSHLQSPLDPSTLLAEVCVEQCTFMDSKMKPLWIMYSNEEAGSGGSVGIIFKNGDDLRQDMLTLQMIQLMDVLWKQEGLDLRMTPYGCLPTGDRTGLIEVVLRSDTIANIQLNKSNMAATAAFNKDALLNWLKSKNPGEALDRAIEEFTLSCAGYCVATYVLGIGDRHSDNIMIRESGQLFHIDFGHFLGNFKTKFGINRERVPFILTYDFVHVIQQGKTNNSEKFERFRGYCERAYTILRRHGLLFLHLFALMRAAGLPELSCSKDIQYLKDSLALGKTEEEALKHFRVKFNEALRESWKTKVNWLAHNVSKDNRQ
PI3Kδ, sequence (P27986 whole entry partner): as the sequence (P27986 whole entry partner) above

For `COc1ncc(-c2ccc3ncnc(N4CCN(C(=O)/C=C/C(C)=O)CC4)c3c2)cc1NS(=O)(=O)c1ccc(Cl)s1` [Example 38, (E)-5-chloro-N-(2-methoxy-5-(4-(4-(4-oxopent-2-enoyl)piperazin-1-yl)quinazolin-6-yl)pyridin-3-yl)thiophene-2-sulfonamide], the IC50 at PI3Kα is 1.5 nM; at PI3Kδ, 14.7 nM; on KRAS^G12C-SOS1, 807 nM; in test [1] it was 59.8 nM; in test [2], 51.1 nM; in test [3], 216 nM.
Turning to `C=CC(=O)N1CCN(c2ncnc3c(F)c(-c4c(O)cccc4F)c(Cl)cc23)CC1` [ARS-1620], in the test with KRAS G12C mutation, the cellular anti-proliferative activity entry was “nM-level”. Besides, the tumor growth inhibition entry in test [4] was “effectively inhibit tumor growth”.
